One series deals with H9C2 cell line. Briefly: qRT-PCR of inflammatory genes in H9C2 cells. The class given is cell-based, rat. The settings on record: ISRIB 200 nM or salubrinal 20 μM with 3 TKIs, 24-hr. The protocol:
(§1) RNA was isolated based on a standard protocol using TRIzol reagent (Vazyme). TRIzol (1ml per 1 well of a 6-well plate) was used to lyse cells and chloroform was added for RNA separation. Samples were shaked vigorously by hand for 15 seconds and incubated at room temperature for 2-3 minutes. RNA was present in the aqueous phase after centrifuge at 12000 x g for 15 minutes. Isopropyl alcohol was mixed to precipitate RNA from the aqueous phase. RNA precipitations were washed with 75% ethanol once and re-dissolved in RNase-free water. 1 μg total RNA was used for cDNA synthesis using a reverse transcription kit (Bioman). We then measured expression of genes of interest with SYBRR Green qPCR Mix (Bioman) using Applied Biosystems 7500 Quantitative PCR Instrument. Gene expression was normalized to the 18S ribosomal RNA expression and primers were listed in Primers Table.
H9C2 cells were a gift from Dr. Rong Qi in Peking University Health Science Center (they were originally purchased from the Cell Bank/Stem cell bank, Chinese Academy of Science). […] Media was changed to DMEM (Gibco) containing 2% FBS 12 hours before treatment. All treatments were performed under DMEM containing 2% FBS.
(In general: In qPCR the cycle at which signal appears reflects the starting amount.)

The next series concerns patients. The settings on record: cited from earlier work.
The nature of series [1]: FDA adverse event reporting system (FAERS) analysis, reporting odds ratios. To be noted: July 2014 to December 2020.
For series [2], the system named is NRCMs. Kind of series: Calcium staining with Calbryte 520 AM. The class given is cell-based, rat. The settings on record: 0.5 and 1 h; 10 µM afatinib, 10 µM sorafenib, 5.62 µM ponatinib.
The next series deals with ER stress genes in NRCMs. Kind of series: qRT-PCR of ER stress genes in NRCMs. Format: cell-based, rat. The protocol: Rats were euthanized by decapitation and thoracic cavity was opened with scissors and hearts were popped out of the opening gently with fingers. Hearts were clipped and put in HBSS immediately; 20–40 hearts were collected into one sterile vial containing a magnetic stir bar and 1 mL digestive media made of 0.1% trypsin (Macklin) and 0.05% collagenase (Gibco) in HBSS. Hearts were minced until they were uniform in size. Digestive media was added to 10 mL for 40 hearts and stirred gently for 6 min. Supernatant was discarded and the digestion was repeated once; 10 mL digestive media was added and stirred gently for 10 min. The supernatant with cells were collected and the digestion and collection were repeated 4 times. Cells were centrifuged at 1200 rpm for 5 min, resuspended in media (Dulbecco’s modified Eagleʼs medium (Gibco)) with 10% fetal bovine serum (FBS; VISTECH), 1% penicillin–streptomycin, and 1% 0.1 M 5-bromo-2-deoxyuridine solution (Shanghai Yuanye) and filtered through a 40-μm cell strainer. Cells were seeded on a 100-mm plastic dish and cultured in a 5% CO2 incubator at 37 °C for 2 h to allow non-myocytes to adhere to the plate. The dish was swirled and media gently pipetted up and down to detach lightly attached cardiomyocytes. […] All drug treatments were performed after this media change.
as §1, with “RNA precipitations were washed with 75% ethanol once and re-dissolved in RNase-free water.” left out

In series [3] the test system is Phospho-eIF2α, XBP1s, ATF6 (cleaved). Kind of series: Western blot of ER stress effectors in NRCMs. The class given is cell-based, rat. For orientation: Immunoblotting shows a protein as a band on a membrane.
Series [4] has as its system NRCMs. Briefly: Seahorse assay: oxygen consumption and extracellular acidification. Format: cell-based, rat. The settings on record: 24 h; fixed doses: 10 µM, crizotinib and ponatinib 3.16 µM. The protocol:
(§2) Rats were euthanized by decapitation and thoracic cavity was opened with scissors and hearts were popped out of the opening gently with fingers. Hearts were clipped and put in HBSS immediately; 20–40 hearts were collected into one sterile vial containing a magnetic stir bar and 1 mL digestive media made of 0.1% trypsin (Macklin) and 0.05% collagenase (Gibco) in HBSS. Hearts were minced until they were uniform in size. Digestive media was added to 10 mL for 40 hearts and stirred gently for 6 min. Supernatant was discarded and the digestion was repeated once; 10 mL digestive media was added and stirred gently for 10 min. The supernatant with cells were collected and the digestion and collection were repeated 4 times. Cells were centrifuged at 1200 rpm for 5 min, resuspended in media (Dulbecco’s modified Eagleʼs medium (Gibco)) with 10% fetal bovine serum (FBS; VISTECH), 1% penicillin–streptomycin, and 1% 0.1 M 5-bromo-2-deoxyuridine solution (Shanghai Yuanye) and filtered through a 40-μm cell strainer. Cells were seeded on a 100-mm plastic dish and cultured in a 5% CO2 incubator at 37 °C for 2 h to allow non-myocytes to adhere to the plate. The dish was swirled and media gently pipetted up and down to detach lightly attached cardiomyocytes. The collected myocytes were seeded in the same media described before; 48 h after plating, medium was exchanged to fresh DMEM (Gibco) with or without 2% FBS. All drug treatments were performed after this media change.
NRCMs were seeded evenly into the Seahorse XF96 cell culture plates (Agilent) and cultured in DMEM high glucose with 2% FBS. About 2 hours before the test, cells were moved to a non-CO2 incubator at 37 ° C and incubated for 1 hour. 1 hour prior to the test, culture media was replaced with the Seahorse Basal DMEM at 37°C (with appropriate concentration of glucose, 4mM L-glutamine, 1 mM sodium pyruvate and 1% penicillin-streptomycin solution) and incubated in a non-CO2 incubator at 37°C for 1 hour. Drugs were prepared at 8x to 10x concentrations with the corresponding seahorse media as in each well and added into ports of Seahorse XF96 cartridge plates which have been hydrated overnight. XFe96 Extracellular Flux Analyzer (Agilent) was used to measure oxygen consumption rate and extracellular acidification rate of cells with different drug treatments.

Series [5] deals with NRCMs. The protocol: After treatment, cells were stained with 5 μg/mL Propidium iodide (Sigma-Aldrich) mixed with Hoechst33342 (Solarbio) in Phenol red-free DMEM (Procell) in a 5% CO2 incubator at 37°C for 30 minutes. Images of PI staining were acquired through the filter Ex/Em=555/624nm and of the nuclei staining through the filter Ex/Em=405/452 using ImageXpress Micro Confocal-AWES (Molecular Devices).

Another series has as its system Sprague-Dawley rats. Kind of series: Rat gavage cardiotoxicity model: survival, heart and body weight.
Series [6] deals with NRCMs. Kind of series: Mitochondrial membrane potential by TMRE staining. Format: cell-based, rat. To be noted: 24 h of treatment.
A further series relates to HELP hiPSC-CMs. Briefly: CardioExcyte 96 microelectrode array: base impedance and extracellular field potential. The class given is cell-based, human. To be noted: fixed doses: 10 µM, crizotinib and ponatinib 3.16 µM; up to 24 h. Here is the method: HELP hiPSC-CMs were seeded evenly into the 96-well microelectrode array, NSP-96 0.6mm sensor plate (Nanion technologies), at 50,000 cells per well. Measurements were started after 3-5 days of culture of these cells and until the impedance and the extracellular field potential are stable. Measurements were taken a few times before drug addition, and every 30~60 minutes after the drugs were added at 2x concentration. Values were averaged from 3 wells per group. Beat rate, amplitude of impedance, base impedance and FPDc were calculated by the Cardio Excyte Control 96 software package (Nanion Technologies).

Series [7] relates to Cor.4U hiPSC-CMs. Briefly: ATP level (CellTiter-Glo) in hiPSC-CMs. Format: cell-based, human. Here is the method:
ATP content was measured using the CellTiter-Glo Luminescent Cell Viability Assay (Promega) following the manufacturer’s protocol. After adding CellTiter-Glo reagents and incubation, luminescence was quantified using a Synergy H1 plate reader (BioTek Instruments). ATP standards were prepared from 0.01 to 5 μM. For each drug, we fitted a four-parameter log-logistic model to calculate ED50 at day 5 (Fig S1). To rank the cellular toxicity of the eight TKIs (Fig 1T), we calculated (EC50-Cmax)/(EC50+Cmax) and arranged from the smallest to the biggest for increasing cellular toxicity.
For orientation: ATP-based viability assays read luminescence as a measure of living cells.

Series [8] has as its system Cor.4U hiPSC-CMs. Kind of series: 3'DGE-UMI RNAseq transcriptome of hiPSC-CMs.
A further series has as its system rat left ventricles. Briefly: Rat gavage cardiotoxicity model: qRT-PCR in left ventricles. The class given is in vivo.
The test system of series [9] is NRCMs. Briefly: qRT-PCR of fetal, pro-inflammatory and ER stress genes with pathway-selective inhibitors. The settings on record: 24 h. Format: cell-based, rat. Here is the method: as §2, §1
The mark [10] stands for this setting: high PC1 loadings, ponatinib at high dose.

Turning to `O=C(/C=C/c1ccccc1)NC(NC(=S)Nc1cccc2cccnc12)C(Cl)(Cl)Cl` (stereo not drawn) [salubrinal], in the series with H9C2 cell line, the “expression of inflammatory genes induced by TKIs” value is “increased the expression level of some pro-inflammatory genes, such as Nfkb1, Il6, and Tnf, but not Il1b”.

With `Cc1ccc(C(=O)Nc2ccc(CN3CCN(C)CC3)c(C(F)(F)F)c2)cc1C#Cc1cnc2cccnn12` [ponatinib], the “incidence of arterial occlusion events” value with patients is reported as 26%. Also, the “level of cardiotoxicity based on literature reports” value in the series on patients (ref Table S1, 2, 4, 26–36) is “high-levels of cardiotoxicity”. Moreover, the “cardiotoxicity events in FAERS, reporting odds ratios (RORs)” value in [1] is listed as “caused the most cardiotoxicity with significant reporting odds ratios (RORs)”. Besides, in the series with NRCMs [2], the cytosolic calcium concentration result was “did not cause any significant changes in calcium concentration”. In the series with ER stress genes in NRCMs (24 h), the “expression of Dnajb9” value is listed as “most robust upregulation of Dnajb9 among the 3 TKIs” and the “expression of Herpud1” value is “most induced”. The “temporal activation of ER stress genes, 72 versus 24 h” value in the series on ER stress genes in NRCMs (afatinib 5.62 µM, sorafenib 3.16 μM, ponatinib 1.78 μM) is “the ATF4 and the ATF6 axes, but not XBP1s, showed time-dependent upregulation”. Further, the “relative activation of the three UPR branches” value in the series on ER stress genes in NRCMs (high-dose treatment, 24 h) was “induced activation of three axes to similar degrees”. Besides, the “duration of activated eIF2α phosphorylation” value in series [3] is on record as 24 h. Also, in the series with NRCMs [4], the “basal oxygen consumption rate (OCR)” value is listed as “trend of inhibiting basal oxygen consumption rate (OCR)”; the “maximal, spare and non-mitochondrial oxygen consumption” value was “inhibited maximal, spare, and non-mitochondrial oxygen consumption significantly”. In the series on NRCMs [5] (24-h treatment, 10 µM afatinib, 10 µM sorafenib, 5.62 µM ponatinib), the cell death entry was “very little cell death”. For the same compound, the death of animals result in the series with Sprague-Dawley rats (15 mg/kg gavage once daily, 3 or 7 days) is on record as “one rat died”. Besides, in the series on Sprague-Dawley rats (day 7, ponatinib 15 mg/kg, sorafenib 50 mg/kg gavage once daily), the “heart or body weight” value is “decreased”. Besides, the mitochondrial membrane potential result with NRCMs [6] was “trend of decreasing mitochondrial membrane potentials”. Besides, in the series on HELP hiPSC-CMs, the “effect on beat rate, contraction, base impedance and corrected field potential duration” value was “reduced beat rate and corrected field potential duration”. Also, the “effect on ATP levels” value in the series with Cor.4U hiPSC-CMs [7] (0.32 to 10 µM, day 1 to day 5) was “dose-dependent and time-dependent reduction in ATP levels”. Also, the “dose-dependent toxicity (ATP fold changes)” value in the series on Cor.4U hiPSC-CMs [7] (day 1, different doses, RNAseq conditions) is given as “dose-dependent toxicity”. Moreover, in the series with Cor.4U hiPSC-CMs [8] (Cluster 3), the “expression of tRNA aminoacylation gene markers (SARS, GARS)” value is given as “increased”. The “expression of genes associated with heart contraction” value with Cor.4U hiPSC-CMs [8] (Cluster 4, day 3 or day 5) is reported as “upregulated”. In addition, in the series with Cor.4U hiPSC-CMs [8] (setting [10]), the “expression of genes associated with ER stress (ATF4, NUPR1, DDIT3, TRIB3, CHAC1, SESN2, HERPUD1)” value is reported as “upregulated”; the “expression of genes related to cardiomyopathy and sarcomeric structure (MYH7, SYNPO2L, LDB3, ACTN2, MYLK3)” value was “downregulated”. The Dnajb9 expression result with rat left ventricles (day 7, 15 mg/kg) was “significantly increased”. The “gene expression of Anp” value in the series with rat left ventricles (ponatinib 15 mg/kg, sorafenib 50 mg/kg gavage, 3 or 7 days) is given as “significant increase”.

As for `O=C(COc1ccc(Cl)cc1)NC1CCC(NC(=O)COc2ccc(Cl)cc2)CC1` (stereo not drawn) [ISRIB], in the series on NRCMs [5] (ISRIB 200 nM or 4μ8c 10 μM with 10 µM sorafenib, 24-hr), the “rescue from cell death induced by sorafenib” value is on record as “had no such effect”. Besides, in the series with NRCMs [9] (ISRIB 200 nM co-treatment), the “expression of Txnip, Il1b, Tnf, Nfkb1 and Il6 induced by TKIs” value was “inhibited the expression of Txnip, Il1b, and Tnf to similar degrees as 4μ8c, but did not hamper the expression of Nfkb1 and Il6 as potently as 4μ8c in combination with ponatinib”; the “expression of cardiac fetal genes induced by TKIs” value was “inhibited the expression of cardiac fetal genes to a similar level as 4μ8c”. Moreover, in the series on NRCMs [9] (ISRIB 200 nM or 4μ8c 10 μM with TKIs), the “effect on Atf4, Ddit3, Xbp1s and Dnajb9 expression induced by TKIs” value was “inhibited Atf4 and Ddit3 significantly without affecting the XBP1s axis too much”. In addition, the “expression of inflammatory genes induced by TKIs” value with H9C2 cell line is “blocked upregulation of inflammatory genes (Nfkb1, Il6. and Tnf) by TKIs”.
